Laboratory results: patent US4150137A, “Pyridylalkyl esters of 2-(p-isobutylphenyl)acetic acid and propionic acids and use” (Hisamitsu Pharmaceutical Co. Inc., priority 1975, dated 1979)

Experiments:
[1] = system: carrageenin-induced leakage of the pigment, dorsal skin; test: Anti-inflammatory activity for topical route (carrageenin, leakage of pigment in dorsal skin); assay type: in vivo, rat (Wistar-strain); conditions: 1% in polyethylene glycol 300, percent inhibition divided by that of ibuprofen
Method: The dorsal skin of male rats of Wistar-strain(body weight: about 100 g) were depilated. Carrageenin suspension was injected intra-dermally at a dose of 250 γ/0.05 ml/site. […] Immediately after injection, the filter paper containing 125.2±18.0 mg of the polyethylene glycol was applied on the injected site. After 3 hours, 1% pontamine sky blue solution was injected intravenously at a dose of 0.5 ml/kg. After further 3 hours, the animals were sacrificed and their dorsal skin were removed to measure the area of leakage of the pigment. The percent inhibition was determined with respect to the results for the control animals.

[2] = system: male mice of dd-strain; assay type: in vivo; conditions: death of animals 72 hours following administration
Method: Each test compound suspended in 0.5% tragacanth-saline was administered intraperitoneally or orally to male mice of dd-strain(body weight 16-24 g). The lethal dose was estimated from the death of animals 72 hours following administration.

[3] = system: writhing syndrome; test: Analgetic activity (acetic acid writhing syndrome); assay type: in vivo, mouse (dd-strain); conditions: Mus musculus, 1 h; oral, mice, 0.6% acetic acid i.p. one hour later; Litchfield-Wilcoxon; read-out: analgetic effect ED50 (95% C.L.)
Method: Each test compound suspended in 0.5% tragacanth-saline was orally administered to dd-strain mice(body weight: 18-20 g). After one hour 0.6% acetic acid solution was injected intraperitoneally in a volume of 0.1 ml/10 g.

[4] = system: carrageenin edema; test: Anti-inflammatory activity for oral route (carrageenin edema, hind paw); assay type: in vivo, rat (Wistar-strain); conditions: percent inhibition divided by that of ibuprofen, carrageenin edema after 3 hours; for anti-inflammatory effect, oral, 10 mg/kg (relative inhibition, ibuprofen = 1.0): 10 mg/kg oral; for anti-inflammatory effect, oral, 50 mg/kg (relative inhibition, ibuprofen = 1.0): 50 mg/kg oral
Method: After 30 minutes 0.5-1.0% carrageenin suspended in the water for injection was injected subcutaneously to a hind paw. After 3 hours the carrageenin edema was measured by volume, and the percent inhibition was determined with respect to the results for the control animals.

Row | Structure (SMILES) | anti-inflammatory effect, topical (relative inhibition, ibuprofen = 1.0) [1] | acute toxicity, oral (lethal dose) [2] [mg/kg] | ED50 [3] [mg/kg] | anti-inflammatory effect, oral, 10 mg/kg (relative inhibition, ibuprofen = 1.0) [4] | anti-inflammatory effect, oral, 50 mg/kg (relative inhibition, ibuprofen = 1.0) [4]
1 | CC(C)Cc1ccc(C(C)C(=O)OCCO)cc1 (stereo not shown) [Compound 10] | 1.9 | > 2000 | 155 | 0.5 | 1.0
2 | CC(C)Cc1ccc(C(C)C(=O)OCc2ccncc2)cc1 (stereo not shown) | 2.7 | > 2000 | 87.1 | 1.0 | 1.2
3 | CC(C)Cc1ccc(C(C)C(=O)OCC2CC2)cc1 (stereo not shown) | 3.7 | 2000 | 103 | 0.8 | 1.6
4 | CC(C)Cc1ccc(C(C)C(=O)OCC(F)(F)F)cc1 (stereo not shown) [Compound 9, 2-(p-isobutylphenyl)propionic acid-2,2,2-trifluoroethyl ester] | 3.6 | 1000 to 2000 | 135 | 0.8 | 1.3
5 | CCCCCCOC(=O)C(C)c1ccc(CC(C)C)cc1 (stereo not shown) [Compound 6] | 3.5 | > 2000 | 215 | – | 1.2
6 | CC(C)Cc1ccc(C(C)C(=O)OCc2ccccc2Cl)cc1 (stereo not shown) | 2.5 | > 2000 | 51.4 | 0.5 | 1.0
7 | CCN(CC)CCOC(=O)C(C)c1ccc(CC(C)C)cc1 (stereo not shown) | 3.0 | 500 to 1000 | 318 | 1.2 | 0.9
8 | CC(C)Cc1ccc(C(C)C(=O)OCc2ccccn2)cc1 (stereo not shown) | 4.0 | 1000 to 2000 | 67.8 | 0.7 | 1.8
9 | CCOCOC(=O)C(C)c1ccc(CC(C)C)cc1 (stereo not shown) [Compound 13] | 2.8 | > 2000 | 155 | 1.3 | 1.0
10 | CC(=O)OCCOC(=O)C(C)c1ccc(CC(C)C)cc1 (stereo not shown) [Compound 18] | 2.2 | > 2000 | 308 | 0.7 | 1.1
